# From PubChem BioAssay AID2305 (GlaxoSmithKline (GSK), 2010)
# “And” between values parts separate entries of the source, which are not always exact repeats. Equal values may be shown once.
# Tested on: P. falciparum 3D7 growth, pLDH absorbance
# Experiment: P. falciparum 3D7 growth inhibition, dose response, strain 3D7 (AID 2305)
row,Compound,IC50
1,C[C@H](NC(=O)c1c(CN2CCC(N3CCCCC3)CC2)c(-c2ccccc2)nc2cc(O)ccc12)C1CCCCC1,760 nM
2,c1cc(C2=N[C@H]3CCCC[C@@H]3N2)ccc1OCCCCCOc1ccc(C2=N[C@@H]3CCCC[C@H]3N2)cc1,230 nM
3,COc1ccc(C=CC(=O)NC2CCC(CN3CCC(c4c[nH]c5ccccc45)CC3)CC2)cc1OC (stereo not drawn),840 nM and 800 nM
4,Nc1nc(N)c2c(Oc3cccc(Cl)c3)cccc2n1,470 nM
5,COc1ccc(Nc2nccc(-c3c(-c4cccc(NC(=O)c5c(F)cccc5F)c4)nn4ccccc34)n2)cc1Cl,280 nM
6,CCn1c(SCC(=O)Nc2cc(C(F)(F)F)ccc2Cl)nc2ccccc2c1=O,400 nM
7,CO/C(=C\C=C\c1cc2cc(Cl)c(Cl)cc2[nH]1)C(=O)NCCCN(C)CCN(C)c1ccccc1,830 nM
8,COc1ccc(NC(=O)c2cn(-c3ccc(C(C)(C)C)cc3)nc2C)cc1N1CCN(C)CC1,950 nM
9,Cc1cccc2[nH]c(-c3ccc(-c4ccc(NC(=O)CN5CCN(C)CC5)cc4)cc3)nc12,790 nM
10,O=C(/C=C/c1ccc(Cl)c(Cl)c1)NCCCCCCN1CCN(C(=O)Nc2ccc(OC(F)F)cc2)CC1,680 nM
11,Cc1cc(-c2cccc(CNC3CCN(C)CC3)c2)ccc1S(=O)(=O)NCc1ccccc1,820 nM
12,CCOc1cc2ncnc(Nc3cc(Cl)c(Cl)c(Cl)c3)c2cc1OCC,200 nM
13,O=C(NCCCCCN1CCC(c2c[nH]c3ccccc23)CC1)Nc1ccc(Br)cc1,920 nM
14,CC[C@H]1CN2CCc3cc(OC)c(OC)cc3[C@@H]2C[C@@H]1C[C@H]1NCCc2c1cc(OC)c(O)c2I,220 nM
15,COc1ccc(Br)cc1/C=C/C(=O)Nc1ccc(C2CCN(C)CC2)cc1,500 nM
16,COc1cccc2cc(C(=O)N[C@@H](CC(C)C)C(=O)NC(/C=N/NC(=O)c3ccccc3)CCc3ccccc3)oc12 (stereo partly drawn),580 nM
17,O=C(Nc1ccc(F)c(Cl)c1)NC1CCN(c2ccnc3cc(Cl)ccc23)C1 (stereo not drawn),210 nM
18,O=C(/C=C/c1ccc(Cl)c(Cl)c1)NCC1CCN(Cc2ccc(O)cc2)CC1,690 nM
19,O=C(Nc1cc(C(F)(F)F)ccc1Cl)c1ccc(Cn2cc(Br)cn2)cc1,1350 nM
20,CCc1cn(CCS(C)(=O)=O)c2ccc(C(=O)N[C@@H](Cc3ccccc3)[C@H](O)CNC(C)(C)CCCC(C)C)cc12,880 nM
21,O=c1cc(NCCCNCc2cccc(Oc3ccccc3)c2)[nH]c2ccccc12,950 nM
22,CC(C)c1cccc(OCC2CCN(c3ncc(C(=O)Nc4ccccc4)cc3Cl)CC2)c1,1060 nM
23,Cc1cc(NC(=O)NCCN2CCC(NS(=O)(=O)c3cccc(Br)c3)C2)c2ccccc2n1 (stereo not drawn),610 nM
24,Cc1cc(N(C)CCN(C)C)nc(Nc2ccc(Cl)cc2)n1,970 nM

row,Compound,IC50
1,Cc1ccc(Nc2ccnc(Nc3ccc(F)c(Cl)c3)n2)cc1O,730 nM
2,Cc1cc(NN=Cc2ccc(Cl)cc2)c2cc(C(F)(F)F)ccc2n1,920 nM
3,O=C(Nc1ccc(OC2CCN(Cc3ccc(F)cc3)C2)cc1)c1cccs1 (stereo not drawn),640 nM
4,COc1ccc(Cn2c(Nc3cccc(C(F)(F)F)c3)nc3cc(C(=O)NCCN4CCCC4)ccc32)cc1Cl,830 nM
5,O=C(Nc1ccc(C(=O)Oc2ccc(-c3ccccc3)cc2)cc1)N[C@@H](Cc1ccc(O)cc1)C(=O)NC1CCN(Cc2ccc(O)cc2)C1 (stereo partly drawn),800 nM
6,O=C(N[C@@H](Cc1ccccc1)C(=O)NCCN1CCCC1)c1ccc(O)c(-c2ccc(Cl)c(Cl)c2)c1,800 nM
7,COc1ccc2nccc(CCC3(O)CCC(NCc4cc5c(cc4F)SCC(=O)N5)CC3)c2c1 (stereo not drawn),670 nM
8,COC(=O)c1ccc(CC(C)NCC(O)c2ccc3ccc4ccccc4c3c2)cc1 (stereo not drawn),220 nM
9,CC(C)(C)C1CCc2nc(N)nc(N)c2C1 (stereo not drawn),10 nM
10,CCC(CC)OC(=O)C(C)c1cccc(C(=O)c2ccccc2)c1 (stereo not drawn),830 nM
11,COc1ccc(C(C(=O)NC2CCN(C[C@H](O)c3ccnc4ccc(OC)cc34)CC2)N2CCN(Cc3ccccc3)CC2)cc1 (stereo partly drawn),150 nM
12,CC(C)(C)c1nn(-c2ccc(Cl)cc2)c2[nH]c(=O)c(CNCc3cccs3)cc12,760 nM
13,COc1cccc(Nc2nccc(NCC(O)c3cccc(C(F)(F)F)c3)n2)c1 (stereo not drawn),700 nM
14,Cc1ccc(NC(=O)Nc2ccc(Br)cc2)cc1OCCN(C)C,980 nM
15,Cc1cccc2[nH]c(-c3ccc(-c4ccc(CN5CCCC(O)C5)cc4)cc3)nc12 (stereo not drawn),860 nM
16,O=C(Nc1ccc(I)cc1)Nc1ccc(Cn2ncc(N3CCCNCC3)c(Cl)c2=O)cc1,1120 nM
17,Cc1cc(N2CCCC2)nc(Nc2ccc(NC(=O)c3ccccc3)cc2)n1,980 nM
18,CCOc1cc(C(=O)Nc2cccnc2)ccc1-c1nc2cc(Cl)c(Cl)cc2[nH]1,1010 nM
19,COc1ccc2ccccc2c1C=NNc1cc(C)nc2cc(C(F)(F)F)ccc12,1040 nM
20,COc1ccc2nccc(N3CCC(SCCNCc4ccc5c(n4)NC(=O)CS5)C3)c2n1 (stereo not drawn),250 nM
21,O=c1cc(NCCCNCc2ccc(C(F)(F)F)c(F)c2)[nH]c2ccccc12,1190 nM
22,O=C(Cc1cccc(Cl)c1)N1CCc2cc3nccc(N4CCN5CCC[C@H]5C4)c3cc21,850 nM
23,CN1C(C)(C)CC(NC(=O)c2ccc(-c3nc4cc(Cl)c(Cl)cc4[nH]3)cc2)CC1(C)C,730 nM
24,COCCOc1cc(C)c(C2CCN(CCCCNC(=O)c3ccc(NC(=O)c4ccc(Cl)cc4)cc3)CC2)cc1C,950 nM

row,Compound,IC50
1,CN(C)CCN(C)Cc1ccc(-c2ccc(NC(=O)c3cccc(Cl)c3)cc2)cc1,1140 nM
2,Cc1ccccc1C1=CCN(CCCN2c3ccccc3Sc3ccc(Cl)cc32)CC1,870 nM
3,CC(C)CNCc1cccc(-c2cccc(CN(CCCN3CCN(C)CC3)C(=O)Nc3ccccc3)c2)c1,1150 nM
4,CCC[C@@H]([C@@H](CC1CCCCC1)C(=O)N[C@H](C(=O)Nc1nccs1)[C@@H](C)OCc1ccccc1)N(O)C=O,80 nM
5,CC(C)Oc1cc2c(cc1NS(=O)(=O)c1ccc(-c3ccc(Cl)cc3)cc1F)CCN(C)CC2,920 nM
6,O=C(/C=C/c1ccc(Cl)c(Cl)c1)N1CCC(NCc2c[nH]c3ccccc23)CC1,1070 nM
7,CC(C)C[C@H](NC(=O)c1ccc(OCCN2CCOCC2)cc1)C(=O)N[C@H](/C=N/N1CCNC1=O)CCc1ccccc1,370 nM
8,O=C1OC(c2ccccc2)(c2ccccn2)CN1C1CCN(Cc2cccn2-c2ccc(Cl)cc2)CC1 (stereo not drawn),470 nM
9,N#Cc1ccc(N2CCN(Cc3cccc(-c4cccc(-c5nc6ccc(F)cc6[nH]5)c4)c3)CC2)nc1,960 nM
10,CC(Cc1ccc(C(=O)N2CCN(C(=O)c3ccc(CC(C)NCCc4cccc(Cl)c4)cc3)CC2)cc1)NCCc1cccc(Cl)c1 (stereo not drawn),680 nM
11,COc1ccc(CCN(C)CCOc2ccc(NC(=O)c3cc(SC)cc4c(=O)c5ccccc5[nH]c34)cc2)cc1OC,1400 nM
12,O=C(NCC1CCC(C(=O)NCc2cccc(C(F)(F)F)c2)CC1)c1ccc(O)c(-c2ccc(Cl)c(Cl)c2)c1 (stereo not drawn),710 nM
13,Cc1cccc2[nH]c(-c3cccc(-c4ccc(NC(=O)NCc5cccc(F)c5)cc4)c3)nc12,240 nM
14,COc1ccc(-c2nc(NC(=O)Cc3ccc(OC)c(OC)c3)sc2C)cc1,1160 nM
15,CCc1c(C)c2ccc3c(c2oc1=O)CN(CCc1ccc(F)cc1)CO3,1230 nM
16,COc1ccc2ccccc2c1CCCCN1CCN(CC(c2ccc(F)cc2)N2CCN(C(C)C)CC2)CC1 (stereo not drawn),810 nM
17,COc1ccc2nc3cc(Cl)ccc3c(NCCCO)c2c1,780 nM
18,O=C(/C=C/c1ccc(C(F)(F)F)cc1)NCCCCCN1CCCN(C(=O)Nc2cccc(Cl)c2)CC1,990 nM
19,CCN(CC)c1ccc(-c2nc3ncc(Cl)cc3[nH]2)cc1,1130 nM
20,NC(N)=Nc1nc(-c2cccc(NC(=O)C(F)(F)F)c2)cs1,1050 nM
21,CCOC(=O)C1=C(C)N=c2sc(=Cc3ccccc3O)c(=O)n2C1c1ccc(OC)c2ccccc12 (stereo not drawn),1260 nM
22,CSCCC(C(=O)O)N1C(=O)c2ccccc2C1=O (stereo not drawn),1030 nM
23,Cc1cc(C2CCN(CCCCNC(=O)c3ccc(NC(=O)c4ccc(Cl)cc4)cc3)CC2)c(C)cc1OCCN(C)C,770 nM
24,COc1ccc(F)cc1-c1cccc(CNC2CCN(CC3Cn4c(=O)ccc5ccc(F)c3c54)CC2)c1 (stereo not drawn),830 nM

row,Compound,IC50
1,Cc1cc(Oc2ccc(-n3ccnc3)cc2)nc(N2CCN(CCCN3CCCC3)CC2)n1,930 nM
2,Cc1cccc(OC2CCN(c3ncc(C(=O)NCCCN4CCCC4=O)cc3Cl)CC2)c1,180 nM
3,Clc1ncnc2ncn(Cc3cccc(Br)c3)c12,1060 nM
4,CCn1c(-c2cc(C)on2)nc2cnc(Oc3ccc(C(=O)N4CC(=O)N(C)C4C(C)(C)C)cc3)cc21 (stereo not drawn),1820 nM
5,O=C(/C=C/c1ccc(Cl)c(Cl)c1)NCCCCCN1CCCN(C(=O)Nc2ccc(Cl)c(C(F)(F)F)c2)CC1,730 nM
6,CCCCCCCc1c(C)[nH]c2cccc(OC)c2c1=O,1130 nM
7,O=C1CCCN1CCCNCc1ccc(-c2ccc(-c3nc4ccc(C(F)(F)F)cc4[nH]3)s2)cc1,380 nM
8,COc1cccc(NC(=O)Nc2ccc(-c3oc(C(=O)NCC(c4ccccc4)N(C)C)cc3-c3ccncc3)cc2)c1 (stereo not drawn),1830 nM
9,CCOc1cc(C(=O)N[C@@H](Cc2ccccc2)[C@H](O)CNCc2cc(OC)cc(OC)c2)cc(N2CCCS2(=O)=O)c1,750 nM
10,COC(=O)C(=C(C)C)N1C(=O)[C@@H](NC(=O)OCc2ccccc2)[C@H]1SS[C@@H]1[C@H](NC(=O)OCc2ccccc2)C(=O)N1C(C(=O)OC)=C(C)C,430 nM
11,CC(C)CNCc1cccc(-c2cccc(CN(C(=O)c3cccs3)C3CCN(Cc4ccccc4)CC3)c2)c1,900 nM
12,C=CCOC(=O)O[C@@H]1[C@@H](OC(=O)OCC=C)[C@@H](OC)O[C@H](COC(c2ccccc2)(c2ccccc2)c2ccccc2)[C@H]1OC(=O)OCC=C,890 nM
13,CCNc1cc(C(=O)N[C@@H](Cc2ccccc2)[C@H](O)CNCCc2ccccc2)cc(N2CCCC2=O)c1,840 nM
14,COCCN1CCN(Cc2ccc(-c3ccc(-c4nc5ccc(F)cc5[nH]4)cc3)cc2)CC1,720 nM
15,N#Cc1cncc(-c2nc3c(N4CCCC(N)C4)cccc3n2CCNCc2ccccc2)c1 (stereo not drawn),770 nM
16,O=C(/C=C/c1ccc(Cl)c(Cl)c1)N1CCC(CN2CCC(c3c[nH]c4ccc(NS(=O)(=O)c5cccs5)cc34)CC2)CC1,220 nM
17,Oc1c(C(Nc2nc3ccccc3s2)c2ccccc2)ccc2cccnc12 (stereo not drawn),650 nM
18,CCc1ccc(NC(=O)c2ccc(CN3CCCN(CC4CCCCC4)CC3)cc2)cc1,710 nM
19,O=C(Nc1ccc2c(c1)CCN(C1CCC1)CC2)c1ccc(-c2cn3ccccc3n2)cc1,880 nM
20,CC(=O)Nc1cccc(C(=O)Nc2cccc(-c3ccc(-c4nc5ccc(C(F)(F)F)cc5[nH]4)s3)c2)c1,650 nM
21,CCc1cn(CCCOC)c2ccc(C(=O)N[C@@H](Cc3ccccc3)[C@H](O)CNCc3cccc(C(F)(F)F)c3)cc12,190 nM
